Source: patent US10080789B2, “Programming of cells for tolerogenic therapies” (President and Fellows of Harvard College, priority 2009, dated 2018)
Where no end group is shown, it is not given here.

Columns and labels:
[1] = biological target: T1, T cell-specific potassium channel Kv1.3 (Rattus norvegicus, UniProt P15384); conditions: cited from earlier work
T1 construct: endogenous in cells

[2] = tested on: mononuclear cells isolated from the bone marrow (BM) of C57BL/6 mice; assay: In vitro induction of DC from bone marrow mononuclear cells, phenotype and cytokine production; assay type: cell-based; conditions: for CD11c+/CD86+ in total BM cells: 7 day incubation of BM cells with GM-CSF with or without the named factor; for expression of the proinflammatory cytokines IL-6 and IL-12 by induced DC: GM-CSF in presence of named factor, bacterial stimulation, vs DC induced by GM-CSF alone
Source text: FIGS. 5F (Table 1) and 5A-E reflect the potency of a material system that delivers TSLP and GM-CSF to PD lesion in induction of tolerogenic DC. […] The surface phenotypes of CD11c+DC in the BM culture were monitored by flow cytometry and the proportionality of each phenotype is expressed as a percent (%) of the total mononuclear cells (MNC) (FIG. 5F, Table 1).
The present invention provides for a material-based local application of GM-CSF with appropriate DC influencing factors that leads to tolerogenic DCs (tDCs), and subsequent enrichment of iTreg cells. Candidate biofactors include thymic stromal lymphopoietin (TSLP), vasoactive intestinal peptide (VIP), and transforming growth factor-beta (TGF-β). Screening is based on the induced DC's anti-inflammatory properties. […] Overall, these observations that the combination of GM-CSF with TSLP efficiently induces DC with an anti-inflammatory phenotype.

[3] = Release profile of GM-CSF from polymer delivery vehicle; assay type: physicochemical; conditions: within the first 5 days; then slow sustained release over next 10 days
Source text: (§1) Numbers in FACS plots indicate the percentage of the cell population positive for both markers. FIG. 4D is the percentage of total cells that were positive for the DC markers CD11c and CD86, in blank (-∘-) and GM-CSF (-●-) loaded polymers as a function of time post implantation. […] Scale bar—500 μm. Values in FIGS. 4A, 4D, 4E, and 4F represent mean and standard deviation (n=4 or 5); *P<0.05; **P<0.01.
(§2) The polymer delivery vehicle presents GM-CSF in a defined spatiotemporal manner in vivo, following introduction into the tissue of interest. […]
To determine the efficiency of GM-CSF, TSLP, and pDNA incorporation and the kinetics of release, ^125I-labeled factors (Perkin Elmer) are utilized as a tracer, and gels and placed in Phosphate Buffer Solution (PBS) (37° C.). At various time points, the PBS release media is collected and amount of ^125I-factor released from the scaffolds is determined at each time point using a gamma counter and normalizing to the total ^125I-factor incorporated into the gels. To asses the retention of GM-CSF bioactivity, loaded gels are placed in the top wells of 6.5 mm transwell dishes (Costar, Cambridge, Mass.) with a pore size of 3 μm and the proliferation of JAWS II cells (DC cell line) cultured in the bottom wells is evaluated at various time points using cell counts from a hemacytometer. […]

CD11c(+)CD86(+) DCs = assay: In vivo DC recruitment to subcutaneously implanted GM-CSF loaded polymers; design: species or system C57BL/6J mice; conditions: polymers loaded with 3 μg GM-CSF
Source text: as §1, §2
Gels with various combinations of factors are injected into gingival of mice. […] To analyze DC recruitment, gels and surrounding tissue are excised at various time-points and the tissue digested into single cell suspensions using a collagenase solution (Worthingtion, 250 U/ml) that was agitated at 37° C. for 45 min The cell suspensions are then poured through a […] cell strainer to isolate cells from gel particles and the cells are pelleted and washed with cold PBS and counted using a Z2 coulter counter (Beckman Coulter). […] Cells are gated according to positive labels using isotype controls, and the percentage of cells staining positive for each surface antigen is recorded.

JAWSII DCs = assay: JAWSII DC recruitment, proliferation, emigration and activation in vitro (transwell); assay type: cell-based
Protocol: FIGS. 3A-D show data related to the concentration dependent effects of GM-CSF on DC proliferation, recruitment, activation and emigration in vitro. […] Migration counts measured at 12 hours. FIG. 3B is the effects of GM-CSF concentration on the proliferation of JAWSII DCs. 0 (white bar), 50 (grey bar), and 500 ng/ml (black bar) of GM-CSF. […] Migration counts taken at 6 hours. FIG. 3D are representative photomicrographs of TNF-α and LPS stimulated JAWSII DCs cultured in 5-50 or 500 ng/ml GM-CSF and stained for the activation markers MHCII and CCR7. Scale bar in FIG. 3D—20 μm. Values in FIGS. 3A-C represent mean and standard deviation (n=4); *P<0.05; **P<0.01
Migration assays are performed with 6.5 mm transwell dishes (Costar, Cambridge, Mass.) with a pore size of 5 μm. The effects of GM-CSF and TSLP, (Invivogen, San Diego, Calif.) on the migration of DCs are assessed by placing recombinant murine GM-CSF and TSLP in the bottom wells and 5×10^5 DCs in the top wells. To assess the effects of GM-CSF and TSLP on DC activation, cells are cultured with bacterial stimulation (fixed Aa, fixed P. gingivalis, Aa-LPS or Pg-LPS along) with various concentrations of TSLP and GM-CSF for 24 hours and then the cells are washed and fixed in 10% formalin. The cells are prepared for fluorescence immunohistochemistry as per below, and examined using fluorescent microscopy (Olympus, Center Valley, Pa.). Cells are also analyzed by FACS, and gated according to positive stains using isotype controls, and the percentage of cells staining positive for each surface antigen will be recorded.

T1 sequence (P15384 whole entry): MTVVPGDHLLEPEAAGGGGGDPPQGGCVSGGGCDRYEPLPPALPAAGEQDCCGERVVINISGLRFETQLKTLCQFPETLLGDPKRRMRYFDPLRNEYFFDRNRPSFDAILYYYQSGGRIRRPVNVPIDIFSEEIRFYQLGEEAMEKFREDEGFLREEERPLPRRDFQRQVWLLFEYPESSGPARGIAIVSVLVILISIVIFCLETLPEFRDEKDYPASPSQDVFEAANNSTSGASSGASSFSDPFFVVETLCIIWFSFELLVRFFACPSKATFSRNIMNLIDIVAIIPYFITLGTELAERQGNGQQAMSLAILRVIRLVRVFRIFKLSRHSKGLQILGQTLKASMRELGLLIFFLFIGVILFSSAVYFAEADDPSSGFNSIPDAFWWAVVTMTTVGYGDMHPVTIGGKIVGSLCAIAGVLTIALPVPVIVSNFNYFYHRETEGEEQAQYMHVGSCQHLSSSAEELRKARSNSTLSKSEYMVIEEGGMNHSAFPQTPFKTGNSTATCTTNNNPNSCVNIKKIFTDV

Substance: Kaliotoxin
- RANKL production by activated rat T cells [1]: inhibits

Substance: granulocyte-macrophage colony stimulating factor [GM-CSF]
- CD11c+/CD86+ in total BM cells [2]: 14.7%
- bioactive GM-CSF load released [3]: approximately 60%
- total cellular infiltration at the site (CD11c(+)CD86(+) DCs; dorsal subcutaneous, day-14, vs control): significantly enhanced
- total cell number and percentage of infiltrating cells that were CD11c(+)CD86(+) DCs (CD11c(+)CD86(+) DCs; subcutaneous): increased
- DC recruitment and proliferation (JAWSII DCs; JAWSII DCs in vitro): enhanced DC recruitment and proliferation in a dose-dependent manner
- DC activation via TNF-α and LPS stimulation (MHCII and CCR7 expression) (JAWSII DCs; high concentrations of GM-CSF): suppressed DC activation
- GM-CSF concentrations that inhibited DC migration toward the LN-derived chemokine CCL19 (JAWSII DCs; transwell, 300 ng/ml CCL19, counts at 6 hours): > 100 ng/mL

Substance: thymic stromal lymphopoietin [TSLP]
- expression of the proinflammatory cytokines IL-6 and IL-12 by induced DC [2]: diminished expression

Substance: transforming growth factor-beta [TGF-b]
- CD11c+/CD86+ in total BM cells [2]: 10.5%
- expression of the proinflammatory cytokines IL-6 and IL-12 by induced DC [2]: diminished expression

Substance: vasoactive intestinal peptide (HSDAVFTDNYTRLRKQMAVKKYLNSILN; ends and bridges not checked; UniProt P01282 125-152, looked up) [VIP, candidate biofactor tested with GM-CSF]
- IL-10 production by induced DC ([2]; BM cells with GM-CSF and named factor (100 ng/ml), 7 days, bacterial challenge): did not up-regulate
- expression of the proinflammatory cytokines IL-6 and IL-12 by induced DC [2]: diminished expression
